Test results: patent US5086072A, “Treatment of mood disorders with functional antagonists of the glycine/NMDA receptor complex” (The United States of America as represented by the …, priority 1990, dated 1992)
Like-named read-outs stand apart in the source and are kept apart here.

Columns and labels:
[1] = assay type: in vivo, mice (male NIH/HSD); conditions: for ACTIVITY (time spent ambulating in an open field): mean ± SEM
Protocol: Values represent means ± standard error of the mean. The number of animals examined in the forced swim test was: VEH, 40; ACPC 25 mg/kg, 11 and 50-600 mg/kg, 10. In the open field, the number of animals tested was: VEH 23; 50 and 600 mg/kg, 5; and 100-400 mg/kg, 10. Male NIH/HSD mice (25-30 g) were injected i.p. with ACPC dissolved in saline. Controls received an equivalent volume of saline. Fifteen minutes later, mice were placed in a cylinder (diameter: 10 cm; height: 25 cm) filled with 6 cm of water (22°-25° C.) and the duration of immobility during the last four minutes of forced swim was measured as described. (8) The ambulatory time in an open field was measured for five minutes, fifteen minutes after injection of ACPC as described in Table 1.
(§1) Glycine (800 mg/kg) or an equivalent volume of saline was administered intraperitoneally to NIH/HSD mice 45 minutes prior to ACPC (400 mg/kg). Fifteen minutes after ACPC administration, animals were evaluated in the forced swim test or in an open field as described in Table 1. This dose of glycine was selected based on a previous report (40), showing that parenteral administration of large doses is required to elevate cerebral levels of glycine. […] Amino acid levels were determined using HPLC/EC with an isocratic separation method and pre-column amino acid derivatization with o-pthalaldehyde and β-mercaptoethano (41).

[2] = forced swim test, duration of immobility during last 4 minutes of 6 minute swim; assay type: in vivo, mice (male NIH/HSD); conditions: for IMMOBILITY %: change versus control; for minimal effective dose: Mus musculus, read-out: minimum effective dose, swim-induced immobility
Protocol: (§2) Certain exemplary compounds encompassed hereby were evaluated pharmacologically in mice using the forced swim (8) and/or tail suspension (9) tests. These tests were initially designed to detect potential antidepressant agents (13, 14) based on the abilities of clinically effective antidepressants to reduce the immobility that animals typically display after active and unsuccessful escape attempts when subjected to these inescapable stressors. Moreover, the predictive validity (15) and pharmacological specificity (13, 14) of these tests has led to the proposal that they represent animal models of depression. (16)
The duration of immobility was measured during the […]
Values represent means ± standard error of the mean. The number of animals examined in the forced swim test was: VEH, 40; ACPC 25 mg/kg, 11 and 50-600 mg/kg, 10. In the open field, the number of animals tested was: VEH 23; 50 and 600 mg/kg, 5; and 100-400 mg/kg, 10. Male NIH/HSD mice (25-30 g) were injected i.p. with ACPC dissolved in saline. Controls received an equivalent volume of saline. […] (8) The ambulatory time in an open field was measured for five minutes, fifteen minutes after injection of ACPC as described in Table 1.
as §1

[3] = forced swim and/or tail suspension tests (overall conclusion); assay type: in vivo, mice
Protocol: as §2

[4] = test system: NMDA receptor complex; conditions: cited from earlier work
[5] = behavioral effects and lethality observed in connection with forced swim; conditions: for behavioral effects prior to forced swim: I2CA 25-200, HA-966 2.5-10, ACBC 50-100 mg/kg; for lethality combined with forced swim: I2CA 25-200, HA-966 2.5-10 mg/kg
Protocol: (§3) Inset: Effects of ACPC on tail suspension-induced immobility. Values are mean standard error of immobility (sec.) during a 6 minute test. The number of animals used in this test was: VEH, 16; ACPC, 200 mg/kg, 6; 300 mg/kg, 9 and 400 mg/kg, 7. Male C57Bl/6J mice [20-25 g](Jackson Laboratories, Bar Harbor, ME) were injected with ACPC. Fifteen minutes later, mice were suspended by the tail and the duration of immobility measured as described. […] 7-chlorokynurenic acid (25-150 mg/kg), indole2-carboxylic acid (I2CA) (25-200 mg/kg), 3-amino-1-hydroxypyrrolidone (HA-966) (2.5-10 mg/kg), cycloleucine (100-400 mg/kg) and 1-aminocyclobutanecarboxylic acid (ACBC) (50-100 mg/kg) were tested under identical conditions to those employed for the other agents (Table 1 and FIG. 1).

[6] = tail suspension test, duration of immobility; assay type: in vivo, mice (male C57Bl/6J); conditions: 200-400 mg/kg, 15 min before test; F(2,31)=29, p<0.0001
Protocol: as §3

[7] = biological target: strychnine-insensitive glycine receptors; conditions: cited from earlier work
[8] = biological target: strychnine sensitive glycine receptors; conditions: cited from earlier work
[9] = test system: NMDA-gated cation channel; conditions: compared with glycine; cited from earlier work
[10] = cited from earlier work
[11] = ambulatory time in the open field (tail suspension study); assay type: in vivo, C57Bl/6J mice; conditions: 400 mg/kg
[12] = cited from earlier work; remark: listed apart in the source
[13] = assay type: in vivo, mice (male NIH/HSD); conditions: for ACTIVITY (time spent ambulating in an open field): 30 min before test, mean ± SEM
[14] = 60 min after 800 mg/kg i.p.; data not shown
Protocol: as §1

[15] = 0.1 mg/kg i.p., 15 min before test
[16] = 0.5 mg/kg i.p., 15 min before test
[17] = 1 mg/kg i.p., 15 min before test
[18] = 7-chlorokynurenic acid 25-150, I2CA 25-200, HA-966 2.5-10, cycloleucine 100-400, ACBC 50-100 mg/kg

C[C@]12N[C@H](Cc3ccccc31)c1ccccc12 (racemic) [MK-801, (+)-5-methyl-10,11-dihydro-5H-dibenzo[a,d]cycloheptene-5, 10-imine]
ACTIVITY (time spent ambulating in an open field) [1, 15]: 144 ± 4 s | increase in ambulatory time in an open field ([1]; 0.5 mg/kg): 34% | ACTIVITY % ([1]; 0.5 mg/kg i.p., 15 min before test, change versus control): +34% | ACTIVITY (time spent ambulating in an open field) [1, 16]: 201 ± 3 s | ACTIVITY (time spent ambulating in an open field) [1, 17]: 170 ± 14 s | effect on ambulatory time ([1]; 0.1 and 1 mg/kg): did not alter ambulatory time | IMMOBILITY % [2, 15]: -43% | IMMOBILITY ([2]; 0.1 mg/kg i.p., 15 min before test, mean ± SEM): 80 ± 10 s | maximum reduction of duration of immobility ([2]; 0.5 mg/kg): 92% | IMMOBILITY % [2, 16]: -92% | IMMOBILITY ([2]; 0.5 mg/kg i.p., 15 min before test, mean ± SEM): 11 ± 4 s | IMMOBILITY % [2, 17]: -54% | IMMOBILITY ([2]; 1 mg/kg i.p., 15 min before test, mean ± SEM): 64 ± 23 s | reduction of duration of immobility ([2]; 0.1 and 1 mg/kg): 43-54% | effect on duration of immobility in the forced swim test ([2]; biphasic, doses of Table 1): reduced significantly the duration of immobility | activity in the antidepressant models [3]: mimic clinically effective antidepressants in these models | activity at the NMDA receptor complex [4]: non-competitive NMDA antagonist

O=C(O)c1cc(O)c2ccc(Cl)cc2n1 [7-chlorokynurenic acid]
effect on immobility in the forced swim test [2, 18]: did not reduce immobility in the forced swim test

NC1(C(=O)O)CCC1 [ACBC, 1-aminocyclobutanecarboxylic acid]
effect on immobility in the forced swim test [2, 18]: did not reduce immobility in the forced swim test | behavioral effects prior to forced swim [5]: marked behavioral effects, including ataxia

NC1(C(=O)O)CC1 [ACPC, 1-aminocyclopropanecarboxylic acid]
increase in ambulatory time ([1]; 600 mg/kg, F(5,60)=10, p<0.0001): 29% | effect of glycine on the locomotor effects of ACPC in the open field ([1]; glycine 800 mg/kg i.p. 45 min prior to ACPC 400 mg/kg): partial antagonism | minimal effective dose [2]: 100 mg/kg | effect of glycine on the action of ACPC in the forced swim test ([2]; mouse, in vivo): completely abolished | effect on immobility in the forced swim test ([2]; mouse, in vivo): reduced immobility in the forced swim test in a dosedependent fashion | maximum reduction of immobility in the forced swim test ([2]; mouse, in vivo): 65% | further effect on immobility at higher doses ([2]; mouse, in vivo, 200 mg/kg): no further reductions in immobility | effect on immobility in the tail suspension test [6]: reduction in immobility | Ki [7]: ~32 nM | activity at the strychnine-insensitive glycine binding site [7]: potent and selective partial agonist | IC50 [8]: > 1 mM | efficacy in stimulating [3H]MK-801 binding [9]: significantly less efficacious than glycine | activity in the antidepressant models [3]: mimic clinically effective antidepressants in these models | muscle relaxation or ataxia [10]: do not produce the muscle relaxation or ataxia | increase in ambulatory time in the open field [11]: 18% | anticonflict actions in animal models [12]: possesses anticonflict actions in animal models

COC(=O)C1(N)CC1 [ACPCM, methyl 1-aminocyclopropanecarboxylate]
minimal effective dose ([2]; Table 2): 50 mg/kg | IMMOBILITY ([2]; Table 2, 25 mg/kg): 126 ± 8 s | IMMOBILITY % ([2]; Table 2, 25 mg/kg): -8% | IMMOBILITY ([2]; Table 2, 50 mg/kg): 89 ± 17 s | IMMOBILITY % ([2]; Table 2, 50 mg/kg): -35% | IMMOBILITY ([2]; Table 2, 100 mg/kg): 40 ± 18 s | IMMOBILITY % ([2]; Table 2, 100 mg/kg): -71% | IMMOBILITY ([2]; Table 2, 150 mg/kg): 69 ± 10 s | IMMOBILITY % ([2]; Table 2, 150 mg/kg): -50%

NC(CCCCCP(=O)(O)O)C(=O)O (stereo not drawn) [AP-7, 2-amino-7-phosphonoheptanoic acid]
effect on ambulatory time in an open field ([1]; doses of Table 1): without affecting ambulatory time | IMMOBILITY ([2]; 40 mg/kg i.p., 30 min before test, mean ± SEM): 141 ± 21 s | IMMOBILITY ([2]; 80 mg/kg i.p., 30 min before test, mean ± SEM): 153 ± 9 s | IMMOBILITY % ([2]; 100 mg/kg i.p., 30 min before test): -35% | IMMOBILITY ([2]; 100 mg/kg i.p., 30 min before test, mean ± SEM): 93 ± 8 s | IMMOBILITY % ([2]; 200 mg/kg i.p., 30 min before test): -62% | IMMOBILITY ([2]; 200 mg/kg i.p., 30 min before test, mean ± SEM): 55 ± 13 s | effect on duration of immobility in the forced swim test ([2]; F(4,71) = 17, p<0.0001): significant, dose dependent reduction in the duration of immobility | activity in the antidepressant models [3]: mimic clinically effective antidepressants in these models | activity at the NMDA receptor complex [4]: competitive antagonist | ACTIVITY (time spent ambulating in an open field) ([13]; 40 mg/kg i.p.): 144 ± 5 s | ACTIVITY (time spent ambulating in an open field) ([13]; 80 mg/kg i.p.): 167 ± 16 s | ACTIVITY (time spent ambulating in an open field) ([13]; 100 mg/kg i.p.): 153 ± 5 s | ACTIVITY (time spent ambulating in an open field) ([13]; 200 mg/kg i.p.): 134 ± 10 s

NC1CCN(O)C1=O (stereo not drawn) [HA-966, 3-amino-1-hydroxypyrrolidone]
effect on immobility in the forced swim test [2, 18]: did not reduce immobility in the forced swim test | lethality combined with forced swim [5]: lethal when combined with forced swim | behavioral effects prior to forced swim [5]: marked behavioral effects, including ataxia

O=C(O)c1cc2ccccc2[nH]1 [I2CA, indole2-carboxylic acid]
effect on immobility in the forced swim test [2, 18]: did not reduce immobility in the forced swim test | lethality combined with forced swim [5]: lethal when combined with forced swim | behavioral effects prior to forced swim [5]: marked behavioral effects, including ataxia

NC1(C(=O)O)CCCC1 [cycloleucine]
effect on immobility in the forced swim test [2, 18]: did not reduce immobility in the forced swim test

NCC(=O)O [glycine]
intrinsic activity in the forced swim test ([2]; mouse, in vivo): devoid of intrinsic activity | concentrations of other amino acids (glutamate, serine, taurine, GABA, alanine) in the hippocampus [14]: unchanged | intrinsic activity in the open field ([13]; mouse, in vivo): devoid of intrinsic activity
